Reference: patent US12441703B2, “Carboxamides as modulators of sodium channels” (VERTEX PHARMACEUTICALS INCORPORATED, priority 2019, dated 2025)

molecular target: human NaV 1.8 (Homo sapiens, UniProt Q9Y5Y9); experiment: E-VIPR assay for detecting and measuring NaV inhibition properties; format: cell-based; settings: E-VIPR assay conducted in the presence of human serum; HEK cells expressing truncated human NaV 1.8; read-out: IC50
Procedure, shortened: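 Membrane-potential (coumarin/oxonol) readout after 10 s of 10 Hz biphasic electrical stimulation on E-VIPR. Compounds: 11-point 3-fold dilutions, […], 0.625% DMSO, 30 min at room temperature, human serum optional. Cells: HEK expressing truncated human NaV1.8 co-transduced with KIR2.1.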

Chain of human NaV 1.8 (Q9Y5Y9 whole entry, looked up, the tested form may be a part): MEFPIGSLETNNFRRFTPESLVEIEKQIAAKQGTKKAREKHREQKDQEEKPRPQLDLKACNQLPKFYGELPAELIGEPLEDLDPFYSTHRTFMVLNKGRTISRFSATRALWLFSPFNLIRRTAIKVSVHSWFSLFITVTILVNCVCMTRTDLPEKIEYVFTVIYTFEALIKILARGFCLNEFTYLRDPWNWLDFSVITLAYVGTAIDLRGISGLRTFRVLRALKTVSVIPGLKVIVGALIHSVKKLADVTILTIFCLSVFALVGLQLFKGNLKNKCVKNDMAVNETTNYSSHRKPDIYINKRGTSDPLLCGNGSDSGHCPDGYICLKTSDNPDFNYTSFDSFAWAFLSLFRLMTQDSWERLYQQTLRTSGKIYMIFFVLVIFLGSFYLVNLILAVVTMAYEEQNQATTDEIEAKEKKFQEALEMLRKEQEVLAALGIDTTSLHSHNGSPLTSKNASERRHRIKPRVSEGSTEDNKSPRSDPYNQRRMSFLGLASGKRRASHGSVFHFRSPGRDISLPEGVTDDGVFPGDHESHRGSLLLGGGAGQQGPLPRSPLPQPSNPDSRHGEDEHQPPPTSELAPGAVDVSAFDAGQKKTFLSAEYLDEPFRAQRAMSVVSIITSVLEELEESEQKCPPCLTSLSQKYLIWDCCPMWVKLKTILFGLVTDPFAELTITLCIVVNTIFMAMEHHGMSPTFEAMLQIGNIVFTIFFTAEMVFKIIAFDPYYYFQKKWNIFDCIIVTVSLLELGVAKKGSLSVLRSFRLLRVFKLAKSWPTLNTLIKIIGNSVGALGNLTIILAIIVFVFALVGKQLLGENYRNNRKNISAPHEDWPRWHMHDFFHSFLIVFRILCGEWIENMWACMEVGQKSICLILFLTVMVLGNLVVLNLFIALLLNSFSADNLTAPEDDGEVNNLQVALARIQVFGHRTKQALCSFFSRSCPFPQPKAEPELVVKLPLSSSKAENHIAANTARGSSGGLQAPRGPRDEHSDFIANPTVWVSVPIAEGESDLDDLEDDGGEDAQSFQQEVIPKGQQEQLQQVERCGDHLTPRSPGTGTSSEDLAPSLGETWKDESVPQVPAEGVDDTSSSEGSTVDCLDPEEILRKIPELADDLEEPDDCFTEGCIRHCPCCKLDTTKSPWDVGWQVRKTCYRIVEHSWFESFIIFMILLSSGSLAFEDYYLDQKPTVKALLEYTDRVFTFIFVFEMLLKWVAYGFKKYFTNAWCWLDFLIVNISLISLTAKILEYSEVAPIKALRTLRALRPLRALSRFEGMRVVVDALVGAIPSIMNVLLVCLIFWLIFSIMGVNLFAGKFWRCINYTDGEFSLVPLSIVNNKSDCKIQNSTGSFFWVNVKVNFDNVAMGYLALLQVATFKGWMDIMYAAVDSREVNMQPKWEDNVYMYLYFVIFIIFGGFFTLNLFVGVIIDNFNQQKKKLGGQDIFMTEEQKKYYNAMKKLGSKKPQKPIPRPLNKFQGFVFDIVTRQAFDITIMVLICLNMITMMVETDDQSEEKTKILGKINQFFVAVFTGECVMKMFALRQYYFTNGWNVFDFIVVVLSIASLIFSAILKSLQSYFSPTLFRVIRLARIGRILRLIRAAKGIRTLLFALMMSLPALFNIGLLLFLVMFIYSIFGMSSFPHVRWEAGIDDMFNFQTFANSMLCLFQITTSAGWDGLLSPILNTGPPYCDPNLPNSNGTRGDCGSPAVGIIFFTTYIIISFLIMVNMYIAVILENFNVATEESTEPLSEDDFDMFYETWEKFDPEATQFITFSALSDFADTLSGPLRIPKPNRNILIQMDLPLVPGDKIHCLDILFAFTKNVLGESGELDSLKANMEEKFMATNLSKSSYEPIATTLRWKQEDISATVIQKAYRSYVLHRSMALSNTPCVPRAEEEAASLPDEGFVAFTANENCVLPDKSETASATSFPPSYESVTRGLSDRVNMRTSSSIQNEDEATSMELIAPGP

| Compound | IC50 |
| --- | --- |
| Cc1c(C(F)(F)F)ccc(Oc2ccc(F)c(Cl)c2)c1C(=O)Nc1ccnc(C(N)=O)c1 [Compound 127, 4-[[6-(3-chloro-4-fluoro-phenoxy)-2-methyl-3-(trifluoromethyl)benzoyl]amino]pyridine-2-carboxamide] | 150 nM |
| Cc1c(C(F)(F)F)ccc(Oc2ccc(OC(F)(F)F)cc2F)c1C(=O)Nc1ccnc(C(N)=O)c1 [Compound 128, 4-[[6-[2-fluoro-4-(trifluoromethoxy)phenoxy]-2-methyl-3-(trifluoromethyl)benzoyl]amino]pyridine-2-carboxamide] | 83 nM |
| Cc1c(C(F)(F)F)ccc(Oc2ccc(F)cc2F)c1C(=O)Nc1ccnc(C(N)=O)c1 [Compound 131, 4-[[6-(2,4-difluorophenoxy)-2-methyl-3-(trifluoromethyl)benzoyl]amino]pyridine-2-carboxamide] | 155 nM |
| Cc1c(C(F)(F)F)ccc(Oc2ccc(OC(C)C)cc2F)c1C(=O)Nc1ccnc(C(N)=O)c1 [Compound 132, 4-[[6-(2-fluoro-4-isopropoxy-phenoxy)-2-methyl-3-(trifluoromethyl)benzoyl]amino]pyridine-2-carboxamide] | > 3000 nM |
| COc1cc(Cl)ccc1Oc1ccc(C(F)(F)F)c(C)c1C(=O)Nc1ccnc(C(N)=O)c1 [Compound 134, 4-[[6-(4-chloro-2-methoxy-phenoxy)-2-methyl-3-(trifluoromethyl)benzoyl]amino]pyridine-2-carboxamide] | 120 nM |
| Cc1c(C(F)(F)F)ccc(Oc2ccc(Cl)cc2F)c1C(=O)Nc1ccnc(C(N)=O)c1 [Compound 135, 4-[[6-(4-chloro-2-fluoro-phenoxy)-2-methyl-3-(trifluoromethyl)benzoyl]amino]pyridine-2-carboxamide] | 470 nM |
| Cc1cc(Cl)ccc1Oc1ccc(C(F)(F)F)c(C)c1C(=O)Nc1ccnc(C(N)=O)c1 [Compound 136, 4-[[6-(4-chloro-2-methyl-phenoxy)-2-methyl-3-(trifluoromethyl)benzoyl]amino]pyridine-2-carboxamide] | 140 nM |
| Cc1c(F)ccc(Oc2ccc(C(F)(F)F)c(C)c2C(=O)Nc2ccnc(C(N)=O)c2)c1C [Compound 141, 4-[[6-(4-fluoro-2,3-dimethyl-phenoxy)-2-methyl-3-(trifluoromethyl)benzoyl]amino]pyridine-2-carboxamide] | 220 nM |
| Cc1cc(Cl)cc(Cl)c1Oc1ccc(C(F)(F)F)c(C)c1C(=O)Nc1ccnc(C(N)=O)c1 [Compound 142, 4-[[6-(2,4-dichloro-6-methyl-phenoxy)-2-methyl-3-(trifluoromethyl)benzoyl]amino]pyridine-2-carboxamide] | 1700 nM |
| Cc1c(C(F)(F)F)ccc(Oc2c(F)cc(F)cc2F)c1C(=O)Nc1ccnc(C(N)=O)c1 [Compound 143, 4-[[2-methyl-3-(trifluoromethyl)-6-(2,4,6-trifluorophenoxy)benzoyl]amino]pyridine-2-carboxamide] | > 3000 nM |
| Cc1cc(Cl)cc(C)c1Oc1ccc(C(F)(F)F)c(C)c1C(=O)Nc1ccnc(C(N)=O)c1 [Compound 144, 4-[[6-(4-chloro-2,6-dimethyl-phenoxy)-2-methyl-3-(trifluoromethyl)benzoyl]amino]pyridine-2-carboxamide] | 765 nM |
| COc1cc(C)cc(OC)c1Oc1ccc(C(F)(F)F)c(C)c1C(=O)Nc1ccnc(C(N)=O)c1 [Compound 145, 4-[[6-(2,6-dimethoxy-4-methyl-phenoxy)-2-methyl-3-(trifluoromethyl)benzoyl]amino]pyridine-2-carboxamide] | > 3000 nM |
| COc1cc(OC(F)(F)F)ccc1Oc1cc(-c2ccoc2)ccc1C(=O)Nc1ccnc(C(N)=O)c1 [Compound 154, 4-[[4-(3-furyl)-2-[2-methoxy-4-(trifluoromethoxy)phenoxy]benzoyl]amino]pyridine-2-carboxamide] | 988 nM |
| COc1cc(OC(F)(F)F)ccc1Oc1cc(-c2ccc(Cl)cc2)ccc1C(=O)Nc1ccnc(C(N)=O)c1 [Compound 155, 4-[[4-(4-chlorophenyl)-2-[2-methoxy-4-(trifluoromethoxy)phenoxy]benzoyl]amino]pyridine-2-carboxamide] | 505 nM |
| COc1cc(OC(F)(F)F)ccc1Oc1cc(-c2ccc(F)cc2)ccc1C(=O)Nc1ccnc(C(N)=O)c1 [Compound 156, 4-[[4-(4-fluorophenyl)-2-[2-methoxy-4-(trifluoromethoxy)phenoxy]benzoyl]amino]pyridine-2-carboxamide] | 730 nM |
| COc1cc(OC(F)(F)F)ccc1Oc1cc(-c2ccc(C(F)(F)F)cc2)ccc1C(=O)Nc1ccnc(C(N)=O)c1 [Compound 157, 4-[[2-[2-methoxy-4-(trifluoromethoxy)phenoxy]-4-[4-(trifluoromethyl)phenyl]benzoyl]amino]pyridine-2-carboxamide] | 408 nM |
| COc1cc(F)ccc1Oc1cc(C(F)(F)F)ccc1C(=O)Nc1ccnc(C(N)=O)c1 [Compound 159, 4-[[2-(4-fluoro-2-methoxy-phenoxy)-4-(trifluoromethyl)benzoyl]amino]pyridine-2-carboxamide] | > 3000 nM |
| CC(C)Oc1ccc(Oc2cc(C(F)(F)F)ccc2C(=O)Nc2ccnc(C(N)=O)c2)cc1F [Compound 160, 4-[[2-(3-fluoro-4-isopropoxy-phenoxy)-4-(trifluoromethyl)benzoyl]amino]pyridine-2-carboxamide] | > 3000 nM |
| NC(=O)c1cc(NC(=O)c2ccc(C(F)(F)F)cc2Oc2ccc(F)cc2Cl)ccn1 [Compound 161, 4-[[2-(2-chloro-4-fluoro-phenoxy)-4-(trifluoromethyl)benzoyl]amino]pyridine-2-carboxamide] | > 3000 nM |

Now those with a lower IC50, led by results:

| IC50 | Compound |
| --- | --- |
| 20 nM | Cc1cc(F)ccc1Oc1ccc(C(F)(F)F)c(C)c1C(=O)Nc1ccnc(C(N)=O)c1 [Compound 129, 4-[[6-(4-fluoro-2-methyl-phenoxy)-2-methyl-3-(trifluoromethyl)benzoyl]amino]pyridine-2-carboxamide] |
| 40 nM | CCOc1ccc(Oc2ccc(C(F)(F)F)c(C)c2C(=O)Nc2ccnc(C(N)=O)c2)c(F)c1F [Compound 130, 4-[[6-(4-ethoxy-2,3-difluoro-phenoxy)-2-methyl-3-(trifluoromethyl)benzoyl]amino]pyridine-2-carboxamide] |
| 9 nM | Cc1cc(OC(F)(F)F)ccc1Oc1ccc(C(F)(F)F)c(C)c1C(=O)Nc1ccnc(C(N)=O)c1 [Compound 133, 4-[[2-methyl-6-[2-methyl-4-(trifluoromethoxy)phenoxy]-3-(trifluoromethyl)benzoyl]amino]pyridine-2-carboxamide] |
| 54 nM | COc1cc(F)ccc1Oc1ccc(C(F)(F)F)c(C)c1C(=O)Nc1ccnc(C(N)=O)c1 [Compound 137, 4-[[6-(4-fluoro-2-methoxy-phenoxy)-2-methyl-3-(trifluoromethyl)benzoyl]amino]pyridine-2-carboxamide] |
| 20 nM | Cc1c(C(F)(F)F)ccc(Oc2ccc(OC(F)(F)F)c(Cl)c2)c1C(=O)Nc1ccnc(C(N)=O)c1 [Compound 138, 4-[[6-[3-chloro-4-(trifluoromethoxy)phenoxy]-2-methyl-3-(trifluoromethyl)benzoyl]amino]pyridine-2-carboxamide] |
| 33 nM | Cc1c(C(F)(F)F)ccc(Oc2ccc(OC(F)(F)F)c(F)c2)c1C(=O)Nc1ccnc(C(N)=O)c1 [Compound 139, 4-[[6-[3-fluoro-4-(trifluoromethoxy)phenoxy]-2-methyl-3-(trifluoromethyl)benzoyl]amino]pyridine-2-carboxamide] |
| 68 nM | Cc1c(C(F)(F)F)ccc(Oc2ccc(F)c(F)c2F)c1C(=O)Nc1ccnc(C(N)=O)c1 [Compound 140, 4-[[2-methyl-3-(trifluoromethyl)-6-(2,3,4-trifluorophenoxy)benzoyl]amino]pyridine-2-carboxamide] |
| 17 nM | Cc1c(C(F)(F)F)ccc(Oc2ccc(OC(F)(F)F)cc2Cl)c1C(=O)Nc1ccnc(C(N)=O)c1 [Compound 146, 4-[[6-[2-chloro-4-(trifluoromethoxy)phenoxy]-2-methyl-3-(trifluoromethyl)benzoyl]amino]pyridine-2-carboxamide] |
| 3 nM | COc1c(Oc2ccc(C(F)(F)F)c(C)c2C(=O)Nc2ccnc(C(N)=O)c2)ccc(OC(F)(F)F)c1F [Compound 147, 4-[[6-[3-fluoro-2-methoxy-4-(trifluoromethoxy)phenoxy]-2-methyl-3-(trifluoromethyl)benzoyl]amino]pyridine-2-carboxamide] |
| 9 nM | Cc1c(C(F)(F)F)ccc(Oc2ccc(OC(F)(F)F)cc2C2CC2)c1C(=O)Nc1ccnc(C(N)=O)c1 [Compound 148, 4-[[6-[2-cyclopropyl-4-(trifluoromethoxy)phenoxy]-2-methyl-3-(trifluoromethyl)benzoyl]amino]pyridine-2-carboxamide] |
| 19 nM | Cc1c(Oc2ccc(C(F)(F)F)c(C)c2C(=O)Nc2ccnc(C(N)=O)c2)ccc(F)c1F [Compound 149, 4-[[6-(3,4-difluoro-2-methyl-phenoxy)-2-methyl-3-(trifluoromethyl)benzoyl]amino]pyridine-2-carboxamide] |
| 2 nM | COc1cc(OC(F)(F)F)ccc1Oc1ccc(C(F)(F)F)c(F)c1C(=O)Nc1cc[n+]([O-])c(C(N)=O)c1 [Compound 150, 4-[[2-fluoro-6-[2-methoxy-4-(trifluoromethoxy)phenoxy]-3-(trifluoromethyl)benzoyl]amino]-1-oxido-pyridin-1-ium-2-carboxamide] |
| 4 nM | COc1cc(OC(F)(F)F)ccc1Oc1ccc(C(F)(F)F)c(C)c1C(=O)Nc1ccnc(C(N)=O)c1 [Compound 151, 4-[[6-[2-methoxy-4-(trifluoromethoxy)phenoxy]-2-methyl-3-(trifluoromethyl)benzoyl]amino]pyridine-2-carboxamide] |
| 12 nM | COc1cc(OC(F)(F)F)ccc1Oc1ccc(C(F)(F)F)c(C)c1C(=O)Nc1ccc(C(N)=O)nc1 [Compound 152] |
| 7 nM | COc1cc(OC(F)(F)F)ccc1Oc1ccc(C(F)(F)F)c(C)c1C(=O)Nc1cc(C(N)=O)ncc1C [Compound 153] |
